The values that follow come from patent US20230212180A1, “SUBSTITUTED PYRAZINE COMPOUND, PHARMACEUTICAL COMPOSITION COMPRISING SAME, AND USE THEREOF” (Sichuan Kelun-Biotech Biopharmaceutical Co., Ltd., priority 2020, published 2023).

Each structure is given as a SMILES string. Read-outs that look alike come from different tables or passages of the source.

In one experiment the target is T1, CYP1A2 (Homo sapiens, UniProt P05177).
T1 construct: purchased Promega
T1 sequence (P05177 1-516): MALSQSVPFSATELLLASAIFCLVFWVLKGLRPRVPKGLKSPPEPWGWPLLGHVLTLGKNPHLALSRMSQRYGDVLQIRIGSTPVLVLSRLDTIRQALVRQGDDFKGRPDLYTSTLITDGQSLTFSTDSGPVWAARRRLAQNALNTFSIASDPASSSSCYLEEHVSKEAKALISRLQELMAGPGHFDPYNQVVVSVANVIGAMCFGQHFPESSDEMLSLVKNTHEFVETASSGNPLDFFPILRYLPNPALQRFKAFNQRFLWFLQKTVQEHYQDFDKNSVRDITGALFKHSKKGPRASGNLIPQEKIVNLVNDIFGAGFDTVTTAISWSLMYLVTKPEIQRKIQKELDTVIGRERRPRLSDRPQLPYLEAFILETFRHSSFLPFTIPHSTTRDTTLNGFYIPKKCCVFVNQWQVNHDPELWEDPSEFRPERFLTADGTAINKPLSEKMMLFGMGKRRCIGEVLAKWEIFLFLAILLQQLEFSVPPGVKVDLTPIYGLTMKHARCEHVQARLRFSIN
Nature of the experiment: Biochemical assay for CYP enzyme inhibition, P450-Glo CYP1A2 Screening System. The class given is in vitro ADME. The protocol:
(§1) Test Example 5: Biochemical Assay for CYP Enzyme (Cytochrome P450) Inhibition
P450-Glo™ CYP1A2 Screening System, (Promega);
(§2) BMG PHERAstar FS Luminescent.
(§3) The experiments were carried out separately according to the instructions of the kits. The steps were as follows:
3.1. Inhibition Against CYP1A2:
Test group: The test compounds at different concentrations were added into a microplate, and Luciferin-ME (100 μM), K3PO4 (100 mM), and CYP1A2 (0.01 μmol/μL) were added into each well, and pre-incubated at room temperature for 10 min. Thereafter, an NADPH regeneration system was added. The mixture was reacted at room temperature for 30 min. Finally, an equal volume of detection buffer was added and incubated at room temperature for 20 min, followed by chemiluminescence detection.
(§4) Negative control group: The experimental method for the negative control group was the same as that for the test group, except that the test compound was not added.
Blank control group: The experimental method for the blank control group was the same as that for the test group, except that the test compound was not added and that CYP1A2 was replaced with CYP1A2 Membrance (0.01 μmol/μL).
(§5) Percentage inhibition=(1−(the chemiluminescent signal value of the test compound group at a certain test concentration−the chemiluminescent signal value of the blank control group)/(the chemiluminescent signal value of the negative control group−the chemiluminescent signal value of the blank control group))×100%.
(§6) When the percentage inhibition was between 30% and 80%, a single value or a value range of the half maximal inhibitory concentration (IC50) of the compound against the CYP enzyme was estimated based on the following equation: IC50=X×(1−percentage inhibition)/percentage inhibition, wherein X was the test concentration of the compound.

Another experiment addresses T2, CYP3A4 (Homo sapiens, UniProt P08684).
T2 construct: purchased Promega
Nature of the experiment: Biochemical assay for CYP enzyme inhibition, P450-Glo CYP3A4 Screening System. The class given is in vitro ADME. The protocol: as §1
P450-Glo™ CYP3A4 Screening System, (Promega).
as §2, §3
3.3. Inhibition Against CYP3A4:
Test group: The test compounds at different concentrations were added into a microplate, and Luciferin-IPA ([…]), K3PO4 (100 mM), and CYP3A4 (2 nM) were added into each well, and pre-incubated at room temperature for 10 min. Thereafter, an NADPH regeneration system was added. The mixture was reacted at room temperature for 30 min. Finally, an equal volume of detection buffer was added and incubated at room temperature for 20 min, followed by chemiluminescence detection.
as §4
Blank control group: The experimental method for the blank control group was the same as that for the test group, except that the test compound was not added and that CYP3A4 was replaced with CYP3A4 Membrance (2 nM).
as §5, §6

Experiment [1] has as its system KYSE-520 cell (human esophageal squamous cell carcinoma cell). Nature of the experiment: Inhibition of the proliferation activity of KYSE-520 cell (CellTiter-Glo). The conditions noted are these: 120 h, KYSE-520 cell proliferation, 5 days. The class given is cell-based. An outline of the steps:
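KYSE-520 cells, 1500/well, adhered overnight, then exposed to compound in complete medium with 10% FBS for 5 days at 37° C, 5% CO2. Viability by CellTiter-Glo luminescence, blank-corrected against cell-free medium and normalised to vehicle. IC50 from four-parameter logistic fit.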
A general note: ATP-based viability assays read luminescence as a measure of living cells.

For experiment [2], the system named is NCI-H358 cell (human non-small cell lung cancer cell). Put plainly: Inhibition of the proliferation activity of NCI-H358 cell (CellTiter-Glo). Format: cell-based. The conditions noted are these: 120 h, 5 days. The protocol:
Test Example 4: Experiment on the Inhibition of the Proliferation Activity of NCI-H358 Cell (Human Non-Small Cell Lung Cancer Cell)
cell: NCI-H358 (Nanjing CoBioer);
kit: CellTiter-Glo® Luminescent Cell Viability Assay Kit (Promega).
inoculation amount of cell: 1500 cells/well;
incubation conditions for compounds: 37° C., 5% CO2;
incubation duration: 5 days;
detecting temperature: room temperature;
chemiluminescence detection using the BMG PHERAstar FS reader.
Cells were cultured in a medium containing 10% fetal bovine serum under the culture conditions of 37° C. and 5% CO2. An appropriate amount of cells were plated into a 96-well plate and cultured overnight in an incubator to allow the cells to adhere to the wall. The following day, the medium was removed and a complete medium containing a pre-diluted compound was added and incubated at 37° C. for 5 days. On the fifth day, the detection reagent CellTiter-Glo® was added into each well. Chemiluminescence was adopted to detect the relative luminescence units (RLUs) of the wells.
The result of a well containing cell-free medium, treated with CellTiter-Glo®, was obtained as the blank value. Cell viability (%)=(sample RLU−blank RLU)/(vehicle RLU−blank RLU)×100%, and maximum inhibition rate (%)=100%−cell viabilitymax. conc. (%). The half maximal inhibitory concentration (IC50) of the compound was calculated by fitting the curve according to the four-parameter logistic model.

The mark [3] stands for this setting: estimated from percentage inhibition, read-out: IC50 (μM) CYP1A2.
[4] abbreviates: estimated from percentage inhibition, read-out: IC50 (μM) CYP3A4.

T2 sequence (P08684 whole entry): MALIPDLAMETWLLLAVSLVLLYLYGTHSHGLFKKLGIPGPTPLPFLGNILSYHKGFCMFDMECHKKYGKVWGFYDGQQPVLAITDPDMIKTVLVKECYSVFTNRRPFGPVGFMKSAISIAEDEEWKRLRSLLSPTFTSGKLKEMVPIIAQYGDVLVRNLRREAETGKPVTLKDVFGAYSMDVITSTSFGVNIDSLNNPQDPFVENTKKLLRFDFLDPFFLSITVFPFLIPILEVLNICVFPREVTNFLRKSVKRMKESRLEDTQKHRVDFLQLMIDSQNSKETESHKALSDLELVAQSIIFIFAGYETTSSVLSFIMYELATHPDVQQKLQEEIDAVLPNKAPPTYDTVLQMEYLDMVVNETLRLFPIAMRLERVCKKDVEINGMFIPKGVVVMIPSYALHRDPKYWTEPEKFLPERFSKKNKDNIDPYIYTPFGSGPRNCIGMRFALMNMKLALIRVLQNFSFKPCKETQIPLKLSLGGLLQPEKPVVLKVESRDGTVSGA

Usually IC50 stands for the point on the concentration scale where inhibition reaches its midpoint. Turning to `C[C@@H]1OCC2(CCN(c3ncc(Sc4ccnc(N5CC(C)(CO)C5)c4Cl)nc3CO)CC2)[C@@H]1N` [Example 27, (3-((3S,4S)-4-amino-3-methyl-2-oxa-8-azaspiro[4.5]decan-8-yl)-6-(3-chloro-2-(3-(hydroxymethyl)-3-methylazetidin-1-yl)pyridin-4-ylthio)pyrazin-2-yl)methanol], the IC50 against CYP1A2 is > 10 µM; at CYP3A4 it was > 10 µM; in experiment [1], 60 nM; in experiment [2], 30 nM.
On to `C[C@@H]1OCC2(CCN(c3ncc(Sc4ccnc(NCC5(O)CC5)c4Cl)nc3CO)CC2)[C@@H]1N` [Example 15, 1-((4-(5-((3S,4S)-4-amino-3-methyl-2-oxa-8-azaspiro[4.5]decan-8-yl)-6-(hydroxymethyl)pyrazin-2-ylthio)-3-chloropyridin-2-ylamino)methyl)cyclopropan-1-ol], for which the IC50 is > 10 µM at CYP1A2, > 10 µM at CYP3A4, 40 nM in experiment [1] and 40 nM in experiment [2].
For the compound `C[C@@H]1OCC2(CCN(c3ncc(Sc4ccnc(N5CC(C(C)(C)O)C5)c4Cl)nc3CO)CC2)[C@@H]1N` [Example 12, 2-(1-(4-(5-((3S,4S)-4-amino-3-methyl-2-oxa-8-azaspiro[4.5]decan-8-yl)-6-(hydroxymethyl)pyrazin-2-ylthio)-3-chloropyridin-2-yl)azetidin-3-yl)propan-2-ol], the IC50 on CYP1A2 was > 10 µM; on CYP3A4 it was > 10 µM; in experiment [1], 40 nM; in experiment [2] it was 18 nM.
With `CC(C)(O)C1CN(c2nccc(Sc3cnc(N4CCC5(CC4)Cc4ncccc4[C@H]5N)c(CO)n3)c2Cl)C1` [Example 43, (S)-2-(1-(4-(5-(5-amino-5,7-dihydrospiro[cyclopenta[b]pyridine-6,4′-piperidin]-1′-yl)-6-(hydroxymethyl)pyrazin-2-ylthio)-3-chloropyridin-2-yl)azetidin-3-yl)propan-2-ol], the IC50 is > 10 µM at CYP1A2 (setting [3]), > 10 µM on CYP3A4 (setting [4]), 40 nM in experiment [1] and 8 nM in experiment [2].
`CC(O)C1CN(c2nccc(Sc3cnc(N4CCC5(CC4)CO[C@@H](C)[C@H]5N)c(CO)n3)c2Cl)C1` (stereo partly drawn) [Example 17, 1-(1-(4-(5-((3S,4S)-4-amino-3-methyl-2-oxa-8-azaspiro[4.5]decan-8-yl)-6-(hydroxymethyl)pyrazin-2-ylthio)-3-chloropyridin-2-yl)azetidin-3-yl)ethan-1-ol]: the IC50 was > 10 µM on CYP1A2, > 10 µM against CYP3A4, 30 nM in experiment [1] and 39 nM in experiment [2].
Regarding `CC(C)(O)C1CN(c2nccc(Sc3cnc(N4CCC5(CC4)Oc4ccccc4[C@H]5N)c(CO)n3)c2Cl)C1` [Example 22, (R)-2-(1-(4-(5-(3-amino-3H-spiro[benzofuran-2,4′-piperidin]-1′-yl)-6-(hydroxymethyl)pyrazin-2-ylthio)-3-chloropyridin-2-yl)azetidin-3-yl)propan-2-ol], the IC50 is > 10 µM at CYP1A2 (setting [3]), > 10 µM on CYP3A4 (setting [4]), 50 nM in experiment [1] and 31 nM in experiment [2].
Regarding `C[C@@H]1OCC2(CCN(c3ncc(Sc4ccnc(N5CC(CS(C)(=O)=O)C5)c4Cl)nc3CO)CC2)[C@@H]1N` [Example 26, (3-((3S,4S)-4-amino-3-methyl-2-oxa-8-azaspiro[4.5]decan-8-yl)-6-(3-chloro-2-(3-(methylsulfonylmethyl)azetidin-1-yl)pyridin-4-ylthio)pyrazin-2-yl)methanol], the IC50 was > 10 µM against CYP1A2, > 10 µM against CYP3A4, 30 nM in experiment [1] and 32 nM in experiment [2].
As to `C[C@@H]1OCC2(CCN(c3ncc(Sc4ccnc(N5CC(CO)(CF)C5)c4Cl)nc3CO)CC2)[C@@H]1N` [Example 42, (3-((3S,4S)-4-amino-3-methyl-2-oxa-8-azaspiro[4.5]decan-8-yl)-6-(3-chloro-2-(3-(fluoromethyl)-3-(hydroxymethyl)azetidin-1-yl)pyridin-4-ylthio)pyrazin-2-yl)methanol], the IC50 is > 10 µM against CYP1A2, > 10 µM at CYP3A4 (setting [4]), 100 nM in experiment [1] and 44 nM in experiment [2].
